Source: patent US8227498B2, “Inhibitors of glutaminyl cyclase” (Probiodrug AG, priority 2007, dated 2012)

molecular target: glutaminyl cyclase (QC) (Homo sapiens, UniProt Q16769); assay: QC inhibitor assay (fluorometric/spectrophotometric QC activity assays with inhibitory compound added)
Sequence (Q16769 29-361): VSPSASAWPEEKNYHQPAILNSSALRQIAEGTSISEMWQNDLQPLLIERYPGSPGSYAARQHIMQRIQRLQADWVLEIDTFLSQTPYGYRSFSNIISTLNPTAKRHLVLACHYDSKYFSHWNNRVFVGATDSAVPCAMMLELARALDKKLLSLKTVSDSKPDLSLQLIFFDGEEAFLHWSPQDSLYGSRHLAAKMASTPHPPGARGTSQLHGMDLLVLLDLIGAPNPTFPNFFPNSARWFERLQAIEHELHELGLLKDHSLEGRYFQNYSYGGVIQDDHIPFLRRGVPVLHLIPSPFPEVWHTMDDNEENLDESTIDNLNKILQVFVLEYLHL
Experimental: All measurements were performed with a BioAssay Reader HTS-7000Plus for microplates (Perkin Elmer) at 30° C. QC activity was evaluated fluorometrically using H-Gln-βNA. The samples consisted of 0.2 mM fluorogenic substrate, 0.25 U pyroglutamyl aminopeptidase (Unizyme, Hørsholm, Denmark) in 0.2 M Tris/HCl, pH 8.0 containing 20 mM EDTA and an appropriately diluted aliquot of QC in a final volume of 250 μl. Excitation/emission wavelengths were 320/410 nm. The assay reactions were initiated by addition of glutaminyl cyclase. QC activity was determined from a standard curve of β-naphthylamine under assay conditions. One unit is defined as the amount of QC catalyzing the formation of 1 μmol pGlu-MNA from H-Gln-βNA per minute under the described conditions.
In a second fluorometric assay, QC was activity determined using H-Gln-AMC as substrate. Reactions were carried out at 30° C. utilizing the NOVOStar reader for microplates (BMG labtechnologies). The samples consisted of varying concentrations of the fluorogenic substrate, 0.1 U pyroglutamyl aminopeptidase (Qiagen) in 0.05 M Tris/HCl, pH 8.0 containing 5 mM EDTA and an appropriately diluted aliquot of QC in a final volume of 250 μl. Excitation/emission wavelengths were 380/460 nm. The assay reactions were initiated by addition of glutaminyl cyclase. […] The kinetic data were evaluated using GraFit sofware.
This novel assay was used to determine the kinetic parameters for most of the QC substrates. […] Samples consisted of the respective QC substrate, 0.3 mM NADH, 14 mM α-Ketoglutaric acid and 30 U/ml glutamate dehydrogenase in a final volume of 250 μl.
The initial velocities were evaluated and the enzymatic activity was determined from a standard curve of ammonia under assay conditions. All samples were measured at 30° C., using either the [sequence]luor Plus or the Sunrise (both from TECAN) reader for microplates. Kinetic data was evaluated using GraFit software.
For inhibitor testing, the sample composition was the same as described above, except of the putative inhibitory compound added. For a rapid test of QC-inhibition, samples contained 4 mM of the respective inhibitor and a substrate concentration at 1 KM. For detailed investigations of the inhibition and determination of Ki-values, influence of the inhibitor on the auxiliary enzymes was investigated first. […] The inhibitory constant was evaluated by fitting the set of progress curves to the general equation for competitive inhibition using GraFit software.

| Compound | IC50 | Ki |
| --- | --- | --- |
| CCc1ccc(N/C(=N/C#N)NCCCn2cncc2C)cc1 [Example 1, 2-cyano(4-ethylphenyl)-3-(3-(5-methyl-1H-imidazol-1-yl)propyl)guanidine] | 0.62 µM | 0.17 µM |
| Cc1cncn1CCCN/C(=N\C#N)Nc1ccc(C(C)C)cc1 [Example 2] | 0.55 µM | 0.091 µM |
| Cc1cncn1CCCN/C(=N/C#N)Nc1ccc(C#N)cc1 [Example 4, 2-cyano(4-cyanophenyl)-3-(3-(5-methyl-1H-imidazol-1-yl)propyl)guanidine] | 1.05 µM | 0.186 µM |
| CCOc1ccc(N/C(=N\C#N)NCCCn2cncc2C)cc1 [Example 6, 2-cyano(4-ethoxyphenyl)-3-(3-(5-methyl-1H-imidazol-1-yl)propyl)guanidine] | 1.09 µM | 0.091 µM |
| Cc1cc(C)c(N/C(=N/C#N)NCCCn2cncc2C)c(C)c1 [Example 8, (3-(5-methyl-1H-imidazol-1-yl)propyl)-2-cyano-3-mesitylguanidine] | 0.624 µM | 0.106 µM |
| Cc1cncn1CCCN/C(=N\C#N)Nc1ccc2ccccc2c1 [Example 10, (3-(5-methyl-1H-imidazol-1-yl)propyl)-2-cyano-3-(naphthalen-2-yl)guanidine] | 1.09 µM | 0.094 µM |
| Cc1cncn1CCCN/C(=N\C#N)Nc1cccc2ccccc12 [Example 11, (3-(5-methyl-1H-imidazol-1-yl)propyl)-2-cyano-3-(naphthalen-1-yl)guanidine] | 0.61 µM | 0.103 µM |
| Cc1cncn1CCCN/C(=N\C#N)Nc1ccc2nsnc2c1 [Example 12, (3-(5-methyl-1H-imidazol-1-yl)propyl)-3-(benzo[c][1,2,5]thiadiazol-6-yl)-2-cyanoguanidine] | 1.34 µM | 0.132 µM |
| Cc1cncn1CCCN/C(=N\C#N)Nc1ccc2c(c1)OCO2 [Example 14, (benzo[d][1,3]dioxol-6-yl)-2-cyano-3-(3-(5-methyl-1H-imidazol-1-yl)propyl)guanidine] | 0.59 µM | 0.11 µM |
| COc1ccc(N/C(=N/C#N)NCCCn2cncc2C)cc1 [Example 15, 2-cyano(4-methoxyphenyl)-3-(3-(5-methyl-1H-imidazol-1-yl)propyl)guanidine] | 0.79 µM | 0.074 µM |
| COc1cc(N/C(=N/C#N)NCCCn2cncc2C)cc(OC)c1 [Example 16, 2-cyano(3,5-dimethoxyphenyl)-3-(3-(5-methyl-1H-imidazol-1-yl)propyl)guanidine] | 0.726 µM | 0.125 µM |
| CCOc1ccc(N/C(=N\C#N)NCCCn2cnc(C)c2)cc1 [Example 17, 2-cyano(4-ethoxyphenyl)-3-(3-(4-methyl-1H-imidazol-1-yl)propyl)guanidine] | 5.69 µM | 1.33 µM |
| COc1cc(N/C(=N\C#N)NCCCn2cnc(C)c2)cc(OC)c1 [Example 18, 2-cyano(3,5-dimethoxyphenyl)-3-(3-(4-methyl-1H-imidazol-1-yl)propyl)guanidine] | 12.3 µM | – |
| Cc1cc(C)c(N/C(=N/C#N)NCCCn2cnc(C)c2)c(C)c1 [Example 20, 2-cyano(mesityl)-3-(3-(4-methyl-1H-imidazol-1-yl)propyl)guanidine] | 8.5 µM | 1.28 µM |
| Cc1cn(CCCN/C(=N\C#N)Nc2ccc(C(C)C)cc2)cn1 [Example 21, 2-cyano(4-isopropylphenyl)-3-(3-(4-methyl-1H-imidazol-1-yl)propyl)guanidine] | 14.9 µM | 2.31 µM |
| CCc1ccc(N/C(=N/C#N)NCCCn2cnc(C)c2)cc1 [Example 22, 2-cyano(4-ethylphenyl)-3-(3-(4-methyl-1H-imidazol-1-yl)propyl)guanidine] | 13.9 µM | 2.37 µM |
| Cc1cn(CCCN/C(=N\C#N)Nc2cccc3ccccc23)cn1 [Example 23, 2-cyano(3-(4-methyl-1H-imidazol-1-yl)propyl)-3-(naphthalen-1-yl)guanidine] | 13.8 µM | 1.69 µM |
| Cc1cn(CCCN/C(=N/C#N)Nc2ccc3nsnc3c2)cn1 [Example 24, (benzo[c][1,2,5]thiadiazol-6-yl)-2-cyano-3-(3-(4-methyl-1H-imidazol-1-yl)propyl)guanidine] | 12.2 µM | 2.21 µM |
| Cc1cn(CCCN/C(=N/C#N)Nc2ccc(C#N)cc2)cn1 [Example 26, 2-cyano(4-cyanophenyl)-3-(3-(4-methyl-1H-imidazol-1-yl)propyl)guanidine] | 30.1 µM | – |
| Cc1cn(CCCN/C(=N/C#N)Nc2ccc(Cl)c(Cl)c2)cn1 [Example 27, (3,4-dichlorophenyl)-2-cyano-3-(3-(4-methyl-1H-imidazol-1-yl)propyl)guanidine] | 17.1 µM | 2.6 µM |
| COc1ccc(N/C(=N\C#N)NCCCn2cnc(C)c2)cc1 [Example 28, 2-cyano(4-methoxyphenyl)-3-(3-(4-methyl-1H-imidazol-1-yl)propyl)guanidine] | 14.4 µM | 2.03 µM |
| Cc1cn(CCCN/C(=N/C#N)Nc2ccc(-c3ccccc3)cc2)cn1 [Example 29, 2-cyano-1-[3-(4-methyl-1H-imidazol-1-yl)propyl]-4-phenylbenzene-1-guanidine] | 10.4 µM | 1.58 µM |
| Cc1cn(CCCN/C(=N/C#N)Nc2ccc3ccccc3c2)cn1 [Example 30, 2-cyano(3-(4-methyl-1H-imidazol-1-yl)propyl)-3-(naphthalen-2-yl)guanidine] | 12.4 µM | 1.87 µM |
